Reference: US20240246934A1, “QUINAZOLINE-BASED COMPOUND, COMPOSITION, AND APPLICATION OF QUINAZOLINE-BASED COMPOUND” (BEIJING SCITECH-MQ PHARMACEUTICALS LIMITED, priority 2021, published 2024)
pIC50: −log10 of the molar value.

What was measured:
[1] = target: T1, HER2 kinase (Homo sapiens, UniProt P04626); experiment: HER2 kinase assay (ULight/PT66 TR-FRET); format: biochemical
T1 construct: purchased Carna Biosciences 08-016
Outline: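 HER2 kinase preincubated 5 min with compounds (11-point 3-fold series, duplicates), then reacted 120 min at room temperature with ATP and ULight-poly GT peptide, each prepared at 4× working concentration (40 μM ATP, 400 nM substrate, 40 nM kinase). PT66 antibody added for 60 min, TR-FRET read; IC50 from inhibition curves.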

[2] = system: NCI-N87 cells; experiment: Inhibition of cell proliferation, CTG method, NCI-N87; format: cell-based; details: Homo sapiens, 72 hours, read-out: hNCI-N87 IC50
From the text: (§1) The present application examined the in vitro anti-proliferative activity of the compounds of the present disclosure against in vitro cultured BT474, NCI-N87, Ba/F3-EGFR-VIII and Ba/F3 HER2 A775_G776insYVMA and Ba/F3 EGFR D770_N771insSVD cell lines by CTG method.
(§2) Reagents and consumables: RPMI1640 (ThermoFisher, Cat. No. C11875500BT); fetal bovine serum (Hyclone, Cat. No. SV30087.03); 0.25% trypsin-EDTA (ThermoFisher, Cat. No. 25200-072); penicillin-streptomycin (Hyclone, Cat. No. SV30010); DMSO (Amresco, Cat. No. 0231-500ML); CTG assay kit (Promega, Cat. No. G924C); 96-well plate (Corning, Cat. No. 3603); multifunctional plate reader (Perkin Elmer, Cat. No. Envision)
(§3) Cell lines: BT474 (from the cell bank of Chinese Academy of Sciences), NCI-N87 (from ATCC), Ba/F3-EGFR-VIII, Ba/F3 HER2 A775_G776insYVMA and Ba/F3 EGFR D770_N771insSVD (all from KYinno Biotechnology (Beijing) Co., Ltd.); all of the above cells were cultured with RPMI1640 medium containing 10% fetal bovine serum, 100 U/mL penicillin, and 100 μg/mL streptomycin in the culture process.
(§4) 1. The assay compound was dissolved with DMSO to form a stock solution and a gradient dilution was performed, followed by dilution with the corresponding medium to obtain a solution with 5-fold working concentration.
(§5) 2. Cells in logarithmic growth phase were adjusted to specific cell densities by dilution with culture medium, and 80 μL of cell suspension was added to a 96-well plate, such that plating densities of cells of BT474, NCI-N87, Ba/F3-EGFR-VIII, Ba/F3 HER2 A775_G776insYVMA and Ba/F3 EGFR D770_N771insSVD were all 3000 cells/well. The cells of Ba/F3-EGFR-VIII, Ba/F3 HER2 A775_G776insYVMA and Ba/F3 EGFR D770_N771insSVD were used directly in the next step (treatment with compound), whereas the BT474 and NCI-N87 needed to be cultured overnight in a 37° C., 5% carbon dioxide gas incubator to adhere to the wall, and then treated with compounds.
(§6) 3. 20 μL of compound solution was added to each well of the 96-well plate that had been inoculated with cells. The highest concentration of the assayed compound was 10 μM, 4-fold serial dilution, a total of 9 concentrations, and duplicate wells. A control group without compound was also set up.
(§7) 4. The cells were cultured for another 72 hours, and then cell viability was detected by CTG assay kit. Signal values were read with a multifunctional plate reader (Perkin Elmer). GraphPad Prism software was used to create a dose-response curve and IC50 was calculated.

[3] = target: Ba/F3 HER2 A775_G776insYVMA cells (Homo sapiens, UniProt P04626, DUP772-775, cells depend on it); experiment: Inhibition of cell proliferation, CTG method, Ba/F3 HER2 A775_G776insYVMA; format: cell-based; details: 72 hours, read-out: Ba/F3 HER2 A775-G776insYVMA IC50
Ba/F3 HER2 A775_G776insYVMA cells, sequence (P04626 with tags, fused parts or gaps DUP772-775): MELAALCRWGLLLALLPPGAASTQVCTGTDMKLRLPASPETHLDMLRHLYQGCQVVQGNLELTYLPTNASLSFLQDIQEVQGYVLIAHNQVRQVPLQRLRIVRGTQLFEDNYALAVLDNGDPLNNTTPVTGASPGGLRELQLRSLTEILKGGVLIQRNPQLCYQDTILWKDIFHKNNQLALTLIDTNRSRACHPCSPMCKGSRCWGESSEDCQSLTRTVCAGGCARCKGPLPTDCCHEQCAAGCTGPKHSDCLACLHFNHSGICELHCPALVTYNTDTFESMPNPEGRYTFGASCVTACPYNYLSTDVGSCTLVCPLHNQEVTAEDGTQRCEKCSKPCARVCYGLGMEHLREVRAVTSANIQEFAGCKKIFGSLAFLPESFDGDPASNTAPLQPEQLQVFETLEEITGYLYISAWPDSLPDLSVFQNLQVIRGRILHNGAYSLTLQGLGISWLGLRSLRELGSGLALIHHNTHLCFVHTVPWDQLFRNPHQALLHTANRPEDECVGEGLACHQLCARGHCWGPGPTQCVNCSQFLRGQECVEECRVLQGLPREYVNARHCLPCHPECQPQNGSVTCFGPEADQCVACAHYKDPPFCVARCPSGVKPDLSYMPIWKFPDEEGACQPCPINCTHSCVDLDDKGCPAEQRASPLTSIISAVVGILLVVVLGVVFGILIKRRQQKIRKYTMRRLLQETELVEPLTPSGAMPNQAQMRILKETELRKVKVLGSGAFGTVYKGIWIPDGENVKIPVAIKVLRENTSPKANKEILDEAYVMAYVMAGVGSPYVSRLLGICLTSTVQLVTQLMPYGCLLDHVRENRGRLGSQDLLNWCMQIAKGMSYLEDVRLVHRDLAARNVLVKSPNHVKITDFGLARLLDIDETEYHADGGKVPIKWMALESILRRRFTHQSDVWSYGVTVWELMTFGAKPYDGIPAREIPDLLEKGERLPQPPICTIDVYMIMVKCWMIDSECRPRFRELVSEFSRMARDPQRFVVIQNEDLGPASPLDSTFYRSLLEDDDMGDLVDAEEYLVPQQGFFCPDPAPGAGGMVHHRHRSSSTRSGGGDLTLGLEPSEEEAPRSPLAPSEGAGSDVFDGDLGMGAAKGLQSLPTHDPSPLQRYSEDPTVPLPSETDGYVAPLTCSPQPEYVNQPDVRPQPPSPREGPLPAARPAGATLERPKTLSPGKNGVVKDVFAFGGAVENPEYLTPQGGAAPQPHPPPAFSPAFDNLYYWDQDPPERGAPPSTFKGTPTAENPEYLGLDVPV
Outline: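 Ba/F3 HER2 A775_G776insYVMA cells in RPMI1640 with 10% FBS were plated at 3000 cells/well and treated directly with compound (top 10 μM, 4-fold, 9 concentrations, duplicates).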

[4] = target: EGFR^WT kinase (Homo sapiens, UniProt P00533); experiment: EGFR^WT kinase assay (ULight/PT66 TR-FRET); format: biochemical
EGFR^WT kinase, sequence (P00533 25-1210): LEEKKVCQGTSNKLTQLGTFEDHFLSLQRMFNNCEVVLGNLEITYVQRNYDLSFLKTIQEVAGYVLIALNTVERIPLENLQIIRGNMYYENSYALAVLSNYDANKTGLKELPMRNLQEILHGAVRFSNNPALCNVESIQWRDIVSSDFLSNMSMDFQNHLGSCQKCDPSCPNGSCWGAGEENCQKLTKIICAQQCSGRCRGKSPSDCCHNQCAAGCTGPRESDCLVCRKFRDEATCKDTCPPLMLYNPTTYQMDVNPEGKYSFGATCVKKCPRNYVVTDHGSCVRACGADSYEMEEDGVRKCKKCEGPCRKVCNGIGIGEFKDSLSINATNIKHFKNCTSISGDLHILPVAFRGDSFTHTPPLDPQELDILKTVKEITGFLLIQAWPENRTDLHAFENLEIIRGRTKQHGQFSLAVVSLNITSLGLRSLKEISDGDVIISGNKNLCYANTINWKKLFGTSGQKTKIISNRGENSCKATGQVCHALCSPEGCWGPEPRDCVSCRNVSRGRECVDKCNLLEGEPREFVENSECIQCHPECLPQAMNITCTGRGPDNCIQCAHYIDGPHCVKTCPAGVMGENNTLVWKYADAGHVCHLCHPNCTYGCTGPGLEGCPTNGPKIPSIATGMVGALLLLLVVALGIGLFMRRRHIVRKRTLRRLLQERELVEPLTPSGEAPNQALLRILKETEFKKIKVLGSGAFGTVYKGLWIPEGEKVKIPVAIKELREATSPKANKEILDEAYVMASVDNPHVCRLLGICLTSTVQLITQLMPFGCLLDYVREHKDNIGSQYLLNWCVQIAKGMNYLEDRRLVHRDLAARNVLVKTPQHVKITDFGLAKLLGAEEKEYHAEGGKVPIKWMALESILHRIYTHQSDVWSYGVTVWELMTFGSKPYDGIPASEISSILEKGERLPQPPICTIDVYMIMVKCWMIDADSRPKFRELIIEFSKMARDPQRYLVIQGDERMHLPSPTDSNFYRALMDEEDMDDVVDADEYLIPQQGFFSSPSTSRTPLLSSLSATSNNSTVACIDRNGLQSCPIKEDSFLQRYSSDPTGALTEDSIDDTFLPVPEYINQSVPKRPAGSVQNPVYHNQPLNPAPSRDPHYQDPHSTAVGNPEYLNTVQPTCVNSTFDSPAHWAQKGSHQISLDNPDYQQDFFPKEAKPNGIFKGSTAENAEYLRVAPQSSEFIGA
Outline: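 Enzyme preincubated 5 min with compound (11-point 3-fold series, duplicate), then ULight-JAK-1 (Tyr1023) peptide and ATP added at 4× stocks of 400 nM and 600 μM; 120 min reaction at room temperature. PT66 antibody TR-FRET read after 60 min; IC50 fitted from inhibition rates.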

[5] = target: Ba/F3-EGFR-VIII cells (Homo sapiens, UniProt P00533, DELINS30-297G, cells depend on it); experiment: Inhibition of cell proliferation, CTG method, Ba/F3-EGFR-VIII; format: cell-based; details: 72 hours, read-out: Ba/F3 EGFRvIII IC50
From the text: as §1, §2, §3
1. […]
as §7

[6] = target: Ba/F3 EGFR D770_N771insSVD cells (Homo sapiens, UniProt P00533, DUP768-770, cells depend on it); experiment: Inhibition of cell proliferation, CTG method, Ba/F3 EGFR D770_N771insSVD; format: cell-based; details: 72 hours, read-out: Ba/F3 EGFR D770_N771insSVD IC50
Ba/F3 EGFR D770_N771insSVD cells, sequence (P00533 with tags, fused parts or gaps DUP768-770): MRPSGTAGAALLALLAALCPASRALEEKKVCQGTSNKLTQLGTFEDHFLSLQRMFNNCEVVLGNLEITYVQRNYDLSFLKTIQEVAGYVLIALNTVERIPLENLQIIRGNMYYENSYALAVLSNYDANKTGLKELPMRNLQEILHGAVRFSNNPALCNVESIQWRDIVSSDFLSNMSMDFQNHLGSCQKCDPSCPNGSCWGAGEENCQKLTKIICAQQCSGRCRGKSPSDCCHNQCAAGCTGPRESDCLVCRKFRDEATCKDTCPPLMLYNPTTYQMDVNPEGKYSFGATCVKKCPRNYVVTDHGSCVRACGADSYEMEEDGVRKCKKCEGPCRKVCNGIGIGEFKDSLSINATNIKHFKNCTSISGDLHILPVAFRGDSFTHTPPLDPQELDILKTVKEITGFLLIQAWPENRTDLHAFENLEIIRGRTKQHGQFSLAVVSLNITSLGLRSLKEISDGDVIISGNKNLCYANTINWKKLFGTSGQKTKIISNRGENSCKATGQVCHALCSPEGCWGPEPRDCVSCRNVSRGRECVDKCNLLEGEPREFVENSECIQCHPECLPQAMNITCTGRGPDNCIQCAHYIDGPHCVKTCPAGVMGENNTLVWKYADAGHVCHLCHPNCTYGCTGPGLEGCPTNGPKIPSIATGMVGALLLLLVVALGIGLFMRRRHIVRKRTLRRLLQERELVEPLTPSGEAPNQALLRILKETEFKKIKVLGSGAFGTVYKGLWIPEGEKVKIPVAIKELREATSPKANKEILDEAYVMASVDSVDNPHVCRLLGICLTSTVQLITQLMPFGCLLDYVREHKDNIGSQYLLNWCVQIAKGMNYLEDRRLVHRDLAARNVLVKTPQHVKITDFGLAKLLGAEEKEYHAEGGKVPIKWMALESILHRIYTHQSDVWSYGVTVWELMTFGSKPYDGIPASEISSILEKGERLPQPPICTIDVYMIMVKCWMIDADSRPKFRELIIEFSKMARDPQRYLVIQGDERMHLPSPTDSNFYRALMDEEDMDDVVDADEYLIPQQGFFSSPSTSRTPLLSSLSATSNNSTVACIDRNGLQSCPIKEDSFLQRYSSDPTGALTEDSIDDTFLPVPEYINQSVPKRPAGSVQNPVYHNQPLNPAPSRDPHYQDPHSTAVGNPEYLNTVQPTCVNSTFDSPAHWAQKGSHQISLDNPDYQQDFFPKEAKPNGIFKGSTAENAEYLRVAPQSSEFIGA
From the text: as §1, §2, §3, §4, §5, §6, §7

[7] = system: BT474 cells; experiment: Inhibition of cell proliferation, CTG method, BT474; format: cell-based; details: Homo sapiens, BT-474, 72 hours, read-out: hBT474 IC50
From the text: as §1, §2, §3
1. […]
as §7

[8] = system: Ba/F3 ERBB2 A775_G776insYVMA; experiment: Efficacy in nude mouse tumor-bearing model of Ba/F3 ERBB2 A775_G776insYVMA; format: in vivo, BALB/c nude mice; details: 30 mg/kg, QD×15, PO; day 15
Experimental: In this assay, some compounds of the application were orally administered to a nude mouse tumor-bearing model of Ba/F3 ERBB2 A775_G776insYVMA to study the effect of the compounds of the application on tumor growth.
Preparation of the assay compound: an appropriate weight of the compound to be assayed was weighed, and completely dissolved in an appropriate volume of vehicle (DMSO). The mixture was vortexed or sonicated. Then an appropriate amount of Solutol was added and mixed well. Finally, sterilized drinking water was added and the mixture was mixed by stirring or vortexing to obtain a homogeneous solution or suspension.
Method: All the assays were authorized and agreed by the Animal Welfare Committee. Ba/F3 ERBB2 A775_G776insYVMA in a logarithmic growth period was inoculated subcutaneously into the right back of immunodeficient nude mice (BALB/c nude, female, 6-7 weeks of age, body weight 18±2 g) with 4×10^6 cells/rat. After the tumor grew to 150-200 mm^3, the animals were randomly divided into a treatment group and a control group. For the treatment group, a solution of each assay compound was given, and for the control group, a vehicle solution without the assay compound was given. Both of the treatment group and the control group were administered once a day for about 2 weeks. The dose of each assay article was 30 mg/kg (in terms of effective compound concentration), and the assay compounds were all prepared freshly for use. During the assay, the diameter of loaded tumors was measured twice a week, and the mice were weighed at the same time. The tumor volume (TV) was calculated by the formula: TV=½×a×b^2, where a and b denote length and width, respectively. Relative tumor volume (RTV) was calculated based on the measured results by the formula: RTV=Vt/V0, where V0 is the tumor volume measured at grouping and administration and Vt is the tumor volume at each measurement. The evaluation index of antitumor activity was the relative tumor proliferation rate T/C (%) calculated by the formula: T/C (%)=(TRTV/CRTV)×100%, TRTV: RTV of the administration group; CRTV: RTV of the control group. T and C denote the average tumor volume at a certain time point in the administration group and the control group, respectively.

T1 sequence (P04626 23-1255): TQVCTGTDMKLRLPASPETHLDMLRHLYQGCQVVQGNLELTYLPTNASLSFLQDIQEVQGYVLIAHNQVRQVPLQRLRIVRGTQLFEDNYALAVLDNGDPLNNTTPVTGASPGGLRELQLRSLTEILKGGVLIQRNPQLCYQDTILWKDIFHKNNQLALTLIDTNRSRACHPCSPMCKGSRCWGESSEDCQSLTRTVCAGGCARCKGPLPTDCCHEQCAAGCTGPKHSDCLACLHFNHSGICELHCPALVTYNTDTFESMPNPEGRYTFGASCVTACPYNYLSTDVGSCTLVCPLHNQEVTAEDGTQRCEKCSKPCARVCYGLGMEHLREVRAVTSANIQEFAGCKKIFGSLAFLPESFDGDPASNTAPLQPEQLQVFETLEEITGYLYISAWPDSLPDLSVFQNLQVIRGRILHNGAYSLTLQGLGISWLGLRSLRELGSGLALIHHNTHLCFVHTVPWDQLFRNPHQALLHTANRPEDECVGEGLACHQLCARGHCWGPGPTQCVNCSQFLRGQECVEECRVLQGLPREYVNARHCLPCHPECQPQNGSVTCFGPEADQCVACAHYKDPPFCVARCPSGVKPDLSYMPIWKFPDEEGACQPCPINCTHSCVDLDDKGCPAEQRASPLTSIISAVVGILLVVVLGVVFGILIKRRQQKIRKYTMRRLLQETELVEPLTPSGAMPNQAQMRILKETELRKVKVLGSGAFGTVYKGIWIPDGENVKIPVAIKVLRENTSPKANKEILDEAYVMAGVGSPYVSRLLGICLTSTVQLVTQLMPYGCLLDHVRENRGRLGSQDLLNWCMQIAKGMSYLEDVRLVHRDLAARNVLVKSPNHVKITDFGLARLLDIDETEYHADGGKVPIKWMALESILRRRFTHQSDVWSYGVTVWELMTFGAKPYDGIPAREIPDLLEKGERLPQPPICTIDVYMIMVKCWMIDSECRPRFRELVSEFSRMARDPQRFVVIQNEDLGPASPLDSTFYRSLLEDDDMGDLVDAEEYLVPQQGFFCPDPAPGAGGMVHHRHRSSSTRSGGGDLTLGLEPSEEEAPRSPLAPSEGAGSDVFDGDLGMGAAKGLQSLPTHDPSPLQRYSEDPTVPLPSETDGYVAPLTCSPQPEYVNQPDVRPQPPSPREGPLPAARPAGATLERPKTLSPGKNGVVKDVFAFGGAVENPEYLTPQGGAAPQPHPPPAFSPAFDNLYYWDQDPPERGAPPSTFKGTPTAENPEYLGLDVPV

COc1c(NC(=O)/C=C/CN(C)C)ccc2ncnc(Nc3ccc(OCc4ccccn4)c(Cl)c3)c12 [Example 1, (E)-N-(4-((3-chloro-4-(pyridin-2-ylmethoxy)phenyl)amino)-5-methoxyquinazolin-6-yl)-4-(dimethylamino)but-2-enamide]
pIC50 [1]: > 8.00
pIC50 [2]: 8.30 to 9.00
GI50 [3]: 1 to 5 nM
pIC50 [4]: > 8.00
GI50 [5]: 1 to 5 nM

COc1c(NC(=O)/C=C/CN(C)C)ccc2ncnc(Nc3ccc(OCc4cccc(F)c4)c(Cl)c3)c12 [Example 2, (E)-N-(4-((3-chloro-4-(3-fluorobenzyloxy)phenyl)amino)-5-methoxyquinazolin-6-yl)-4-(dimethylamino)but-2-enamide]
pIC50 [1]: > 8.00
pIC50 [2]: 8.30 to 9.00
GI50 [3]: 1 to 5 nM
GI50 [6]: 10 to 100 nM
pIC50 [4]: > 8.00

CCOc1c(NC(=O)/C=C/[C@H]2CCCN2C)ccc2ncnc(Nc3ccc(OCc4ccccn4)c(Cl)c3)c12 [Example 5, (R,E)-N-(4-((3-chloro-4-(pyridin-2-ylmethoxy)phenyl)amino)-5-ethoxyquinazolin-6-yl)-3-(1-methylpyrrolidin-2-yl)acrylamide]
pIC50 [1]: > 8.00
pIC50 [2]: 8.30 to 9.00
GI50 [3]: < 1 nM
pIC50 [4]: 7.00 to 8.00
pIC50 [7]: 7.00 to 8.00

COCCOc1c(NC(=O)/C=C/[C@H]2CCCN2C)ccc2ncnc(Nc3ccc(OCc4ccccn4)c(Cl)c3)c12 [Example 8, (R,E)-N-(4-((3-chloro-4-(pyridin-2-ylmethoxy)phenyl)amino)-5-(2-methoxyethoxy)quinazolin-6-yl)-3-(1-methylpyrrolidin-2-yl)acrylamide]
pIC50 [1]: > 8.00
T/C (%) [8]: 5.83%
GI50 [3]: 1 to 5 nM
GI50 [6]: 10 to 100 nM
pIC50 [4]: > 8.00

CCN1CCC[C@@H]1/C=C/C(=O)Nc1ccc2ncnc(Nc3ccc(OCc4cccc(F)c4)c(Cl)c3)c2c1OC [Example 28, (R,E)-N-(4-((3-chloro-4-(3-fluorobenzyloxy)phenyl)amino)-5-methoxyquinazolin-6-yl)-3-(1-ethylpyrrolidin-2-yl)acrylamide]
pIC50 [1]: > 8.00
GI50 [3]: 1 to 5 nM
GI50 [6]: 10 to 100 nM
pIC50 [4]: > 8.00
